Reference: patent publication US11319324B2, “Pyrazolo-pyrrolo-pyrimidine-dione derivatives as P2X3 inhibitors” (Bayer Aktiengesellschaft, priority 2017, dated 2022)

These compounds were tested against T1, human P2X3 receptor (Homo sapiens, UniProt P56373) (assay: Intracellular calcium measurement to assess antagonist activity at human P2X3 receptors (hP2X3 CHO), photina luminescence). Settings: column 2), CHO cells, agonist α,β-methylene-ATP at EC50.
T1 sequence (P56373 1-397): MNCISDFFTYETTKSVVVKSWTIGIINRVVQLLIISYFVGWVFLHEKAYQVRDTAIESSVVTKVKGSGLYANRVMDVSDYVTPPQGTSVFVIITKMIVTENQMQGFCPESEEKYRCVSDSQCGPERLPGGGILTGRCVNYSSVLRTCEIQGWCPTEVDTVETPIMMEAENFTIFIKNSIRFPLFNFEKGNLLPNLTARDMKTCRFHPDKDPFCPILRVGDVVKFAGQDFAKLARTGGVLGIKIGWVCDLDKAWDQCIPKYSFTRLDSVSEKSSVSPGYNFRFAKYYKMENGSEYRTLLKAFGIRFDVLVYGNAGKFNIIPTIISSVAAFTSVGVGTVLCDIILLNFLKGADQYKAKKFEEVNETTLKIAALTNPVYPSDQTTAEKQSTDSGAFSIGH
Format: cell-based
Set-up: expressed in transfected cells; host or cells: Chinese hamster ovary (CHO) cells
Method: 2) Intracellular Calcium Measurement to Assess Antagonist Activity at Human P2X3 Receptors (hP2X3 CHO)
The determination of antagonistic activity at the P2X3 receptor of the compounds of the invention was performed by use of a recombinant cell line. This cell line derives originally from the Chinese hamster ovary (CHO) cell line (Tjio J. H.; Puck T. T., 1958, J. Exp. Med. 108: 259-271). The cell line is stably transfected with the human P2X3 receptor and a calcium-sensitive photoprotein, mitochondrial photina, which, after reconstitution with the cofactor coelenterazine, emits light in dependence of calcium binding [Bovolenta S, Foti M, Lohmer S, Corazza S., J Biomol Screen. 2007 August; 12(5):694-704]. The strength of the photina luminescence signal corresponds to the level of receptor activation upon agonist binding. An inhibitor would decrease the signal depending on its potency and concentration. Bioluminescence was detected using a suitable luminometer [Milligan G, Marshall F, Rees S, Trends in Pharmacological Sciences 17,235-237 (1996)].
On the day before the assay, the cells were plated out in culture medium (DMEM/F12 (PAN, P04-41451), 10% FCS) in 384-well microtiter plates and kept in a cell incubator (96% humidity, 5% v/v CO2, […]). On the day of the assay medium was replaced by 2 mM Ca-tyrode buffer containing 5 μg/ml coelenterazine. Plates were incubated for 3 hours at 37° C. (96% humidity, 5% v/v CO2). […] The resulting light signal was measured immediately in the luminometer.
For `Cc1ccccc1NC(=O)c1cc2n(CC(=O)Nc3ccc(F)cn3)c3c(c(=O)n2n1)CN(C(C)C)C3=O` [Example 204], the IC50 was 36 nM.
`CC(C)N1Cc2c(n(CC(=O)Nc3ccc(F)cn3)c3cc(C(=O)NCCCO)nn3c2=O)C1=O` [Example 224] showed an IC50 of 145 nM.
`CCOC(=O)c1cc2n(CC(=O)Nc3ccc(F)cn3)c3c(c(=O)n2n1)CN(C1CCOCC1)C3=O` [Example 122] gave an IC50 of 94 nM.
Compound `CCc1cc2n(CC(=O)Nc3ccc(F)cn3)c3c(c(=O)n2n1)CN(CC1CN(C(C)=O)C1)C3=O` [Example 268] has an IC50 of 580 nM.
With `CCc1cc2n(CC(=O)Nc3ccc(F)cn3)c3c(c(=O)n2n1)CN(CC(=O)N1CCOCC1)C3=O` [Example 291, 2-{2-ethyl-6-[2-(morpholin-4-yl)-2-oxoethyl]-5,8-dioxo-5,6,7,8-tetrahydro-4H-pyrazolo[1,5-a]pyrrolo[3,4-d]pyrimidin-4-yl}-N-(5-fluoropyridin-2-yl)acetamide] the IC50 was 415 nM.
Compound `CC(C)N1Cc2c(n(CC(=O)Nc3ccc(F)cn3)c3cc(Cc4ccccn4)nn3c2=O)C1=O` [Example 133] has an IC50 of 22 nM.
Compound `CCc1cc2n(CC(=O)Nc3ccc(F)cn3)c3c(c(=O)n2n1)CN(C1CCS(=O)(=O)CC1)C3=O` [Example 119] has an IC50 of 470 nM.
In the case of `Cc1cc2n(CC(=O)Nc3ccc(F)cn3)c3c(c(=O)n2n1)CN(CC1CCO1)C3=O` (centres unmarked) [Example 125], the IC50 was 240 nM.
`CC(C)N1Cc2c(n(CC(=O)Nc3ccc(F)cn3)c3cc([C@H]4CCOC4)nn3c2=O)C1=O` (single isomer, unassigned) [Example 281, 2-{5,8-dioxo-2-[oxolan-3-yl]-6-(propan-2-yl)-5,6,7,8-tetrahydro-4H-pyrazolo[1,5-a]pyrrolo[3,4-d]pyrimidin-4-yl}-N-(5-fluoropyridin-2-yl)acetamide] was tested, and the IC50 was 42 nM.
`Cc1cnc(-c2cc3n(CC(=O)Nc4ccc(F)cn4)c4c(c(=O)n3n2)CN(C(C)C)C4=O)c(C)c1` [Example 166, 2-[2-(3,5-dimethylpyridin-2-yl)-5,8-dioxo-6-(propan-2-yl)-5,6,7,8-tetrahydro-4H-pyrazolo[1,5-a]pyrrolo[3,4-d]pyrimidin-4-yl]-N-(5-fluoropyridin-2-yl)acetamide] was tested, and the IC50 was 5 nM.
Compound `CCc1cc2n(CC(=O)Nc3ccc(F)cn3)c3c(c(=O)n2n1)CN(C1CCNCC1)C3=O` [Example 237] has an IC50 of 1950 nM.
Work on `CCc1cc2n(CC(=O)Nc3ccc(F)cn3)c3c(c(=O)n2n1)CN(C1CNC1)C3=O` [Example 243] yielded an IC50 of 230 nM.
`CCc1cc2n(CC(=O)Nc3ccc(F)cn3)c3c(c(=O)n2n1)CN(CC(=O)N(C)CC1CC1)C3=O` [Example 293] was tested, and the IC50 was 240 nM.
Work on `CC(C)N1Cc2c(n(CC(=O)Nc3ccc(F)cn3)c3cc(CN4CCCC4=O)nn3c2=O)C1=O` [Example 232, 2-{5,8-dioxo-2-[(2-oxopyrrolidin-1-yl)methyl]-6-(propan-2-yl)-5,6,7,8-tetrahydro-4H-pyrazolo[1,5-a]pyrrolo[3,4-d]pyrimidin-4-yl}-N-(5-fluoropyridin-2-yl)acetamide] yielded an IC50 of 53 nM.
Compound `COC[C@H](C)N1Cc2c(n(CC(=O)Nc3ccc(F)cn3)c3cc(C(=O)Nc4ccccc4F)nn3c2=O)C1=O` [Example 221] has an IC50 of 30 nM.
With `O=C(Cn1c2c(c(=O)n3nc(-c4ccncc4)cc13)CN(Cc1ccccn1)C2=O)Nc1ccc(F)cn1` [Example 130] the IC50 was 14 nM.
`COC[C@H](C)N1Cc2c(n(CC(=O)Nc3ccc(F)cn3)c3cc(C#N)nn3c2=O)C1=O` [Example 148] gave an IC50 of 225 nM.
Compound `CC(C)N1Cc2c(n(CC(=O)Nc3ccc(F)cn3)c3cc(C(=O)Nc4ncccn4)nn3c2=O)C1=O` [Example 210] has an IC50 of 28 nM.
For `CCc1cc2n(CC(=O)Nc3ccc(F)cn3)c3c(c(=O)n2n1)CN(C1CN(S(C)(=O)=O)C1)C3=O` [Example 273], the IC50 was 565 nM.
`Cc1cccnc1-c1cc2n(CC(=O)Nc3ccc(F)cn3)c3c(c(=O)n2n1)CN(C(C)C)C3=O` [Example 163] showed an IC50 of 398 nM.
Work on `CCc1cc2n(CC(=O)Nc3ccc(F)cn3)c3c(c(=O)n2n1)CN(C(C)(C)CO)C3=O` [Example 136, 2-[2-ethyl-6-(1-hydroxy-2-methylpropan-2-yl)-5,8-dioxo-5,6,7,8-tetrahydro-4H-pyrazolo[1,5-a]pyrrolo[3,4-d]pyrimidin-4-yl]-N-(5-fluoropyridin-2-yl)acetamide] yielded an IC50 of 56 nM.
`CC(C)N1Cc2c(n(CC(=O)Nc3ccc(F)cn3)c3cc(C4=CCS(=O)(=O)CC4)nn3c2=O)C1=O` [Example 145, 2-[2-(1,1-dioxo-1,2,3,6-tetrahydro-1lambda^6-thiopyran-4-yl)-5,8-dioxo-6-(propan-2-yl)-5,6,7,8-tetrahydro-4H-pyrazolo[1,5-a]pyrrolo[3,4-d]pyrimidin-4-yl]-N-(5-fluoropyridin-2-yl)acetamide] gave an IC50 of 33 nM.
In the case of `O=C(Cn1c2c(c(=O)n3nc(-c4ccncc4)cc13)CN(Cc1ccc(F)cc1)C2=O)Nc1ccc(F)cn1` [Example 129], the IC50 was 53 nM.
Work on `CCc1cc2n(CC(=O)Nc3ccc(F)cn3)c3c(c(=O)n2n1)CN(CC1CNC1)C3=O` [Example 242] yielded an IC50 of 585 nM.
`O=C(Cn1c2c(c(=O)n3nc(-c4ccncc4)cc13)CN(CCN1CCOCC1)C2=O)Nc1ccc(F)cn1` [Example 132] showed an IC50 of 18 nM.
In the case of `CC(C)N1Cc2c(n(CC(=O)Nc3ccc(F)cn3)c3cc(C(=O)Nc4cccc(F)c4)nn3c2=O)C1=O` [Example 206], the IC50 was 47 nM.
For `CC(C)N1Cc2c(n(CC(=O)Nc3ccc(F)cn3)c3cc(C(=O)O)nn3c2=O)C1=O` [Example 84, 4-{2-[(5-Fluoropyridin-2-yl)amino]-2-oxoethyl}-5,8-dioxo-6-(propan-2-yl)-5,6,7,8-tetrahydro-4H-pyrazolo[1,5-a]pyrrolo[3,4-d]pyrimidine-2-carboxylic acid], the IC50 was 1400 nM.
`COC[C@H](C)N1Cc2c(n(CC(=O)Nc3ccc(F)cn3)c3cc(C(=O)Nc4ccon4)nn3c2=O)C1=O` [Example 215] was tested, and the IC50 was 63 nM.
With `CCc1cc2n(CC(=O)Nc3ccc(F)cn3)c3c(c(=O)n2n1)CN(C1CCN(C)CC1)C3=O` [Example 87] the IC50 was 1650 nM.
`CCc1cc2n(CC(=O)Nc3ccc(F)cn3)c3c(c(=O)n2n1)CN(CC1CCC1)C3=O` [Example 113] was tested, and the IC50 was 113 nM.
With `O=C(Cn1c2c(c(=O)n3nc(C(=O)Nc4ccccc4F)cc13)CN(CCN1CCOCC1)C2=O)Nc1ccc(F)cn1` [Example 220] the IC50 was 45 nM.
For `N#Cc1cc2n(CC(=O)Nc3ccc(F)cn3)c3c(c(=O)n2n1)CN(CCN1CCOCC1)C3=O` [Example 147], the IC50 was 225 nM.
`CC(C)N1Cc2c(n(CC(=O)Nc3ccc(F)cn3)c3cc(C(=O)Nc4ccccc4Cl)nn3c2=O)C1=O` [Example 203] was tested, and the IC50 was 25 nM.
Compound `O=C(Cn1c2c(c(=O)n3nc(C(F)(F)F)cc13)CN(CCN1CCOCC1)C2=O)Nc1ccc(F)cn1` [Example 103] has an IC50 of 143 nM.
`CCc1cc2n(CC(=O)Nc3ccc(F)cn3)c3c(c(=O)n2n1)CN(CC1CN(C(=O)OC(C)(C)C)C1)C3=O` [Example 115] was tested, and the IC50 was 205 nM.
`CC(C)N1Cc2c(n(CC(=O)Nc3ccc(F)cn3)c3cc(C(=O)Nc4ncco4)nn3c2=O)C1=O` [Example 209] gave an IC50 of 123 nM.
`CCc1cc2n(CC(=O)Nc3ccc(F)cn3)c3c(c(=O)n2n1)CN(C1CCN(C2CCC2)C1)C3=O` (centres unmarked) [Example 254] gave an IC50 of 1150 nM.
`CCOC(=O)c1cc2n(CC(=O)Nc3ccc(F)cn3)c3c(c(=O)n2n1)CN(Cc1ccccn1)C3=O` [Example 124] was tested, and the IC50 was 10 nM.
